Assay results: ChEMBL document CHEMBL1128258, “[[(Guaninylalkyl)phosphinico]methyl]phosphonic acids. Multisubstrate analogue inhibitors of human erythrocyte purine nucleoside phosphorylase” (J Med Chem, 1995)

Key:
[1] = biological target: T1, Purine nucleoside phosphorylase (Homo sapiens, UniProt P00491); assay: Inhibition of human erythrocyte purine nucleoside phosphorylase (PNPase) in the presence of zinc chloride
T1 sequence (P00491 whole entry): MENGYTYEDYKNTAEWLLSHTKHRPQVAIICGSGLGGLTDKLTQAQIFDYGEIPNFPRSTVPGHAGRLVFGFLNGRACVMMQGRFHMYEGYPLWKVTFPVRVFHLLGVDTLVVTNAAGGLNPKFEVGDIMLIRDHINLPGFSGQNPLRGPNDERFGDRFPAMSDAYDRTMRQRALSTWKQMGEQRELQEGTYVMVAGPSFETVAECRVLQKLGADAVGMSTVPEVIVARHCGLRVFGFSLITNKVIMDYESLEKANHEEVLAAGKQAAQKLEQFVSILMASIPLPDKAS

[2] = biological target: T1, Purine nucleoside phosphorylase; assay: Inhibition of human erythrocyte purine nucleoside phosphorylase (PNPase) in the presence of ethylenediaminetetraacetic acid (Na2 EDTA)

Ki [1]	Ki [2]	SMILES
100 nM	1400 nM	Nc1nc(O)c2ncn(CCCCP(=O)(O)CP(=O)(O)O)c2n1
10 nM	1100 nM	Nc1nc(O)c2ncn(CCCCCCCP(=O)(O)CP(=O)(O)O)c2n1
3.7 nM	390 nM	Nc1nc(O)c2ncn(CCCCCCP(=O)(O)CP(=O)(O)O)c2n1
1400 nM	270000 nM	O=c1[nH]c(=O)c2ncn(CCCCCP(=O)(O)CP(=O)(O)O)c2[nH]1

SMILES	Ki [1]	Ki [2]
CCOP(=O)(O)CP(=O)(O)CCCCCn1cnc2c(O)nc(N)nc21	1100 nM	14000 nM
